Assay results: patent US20210220301A1, “Pharmaceutical or Nutritional Combination Comprising Beta-Hydroxy-Betamethylbutyrate” (Abbott Laboratories, priority 2016, published 2021)

Experiments:
[1] = tested on: rats subjected to dexamethasone-induced muscle loss; test: Dexamethasone-induced muscle loss in rats: soleus muscle mass after 21 days; type: in vivo, Sprague-Dawley rats; conditions: 200 mg/kg/day white curcumin alone, co-administered with 0.1 mg/kg/day dexamethasone i.p., day 21, FIG. 1, t-test P<0.05
Protocol: A study was carried out to investigate the effect of a composition comprising HMB and white curcumin (THC) in a well-established animal model for human muscle loss (β-Hydroxy-β-methylbutyrate (HMB) normalizes dexamethasone-induced autophagy-lysosomal pathway in skeletal muscle. Giron M D, Vilchez J D, Shreeram S, Salto R, Manzano M, Cabrera E, Campos N, Edens N K, Rueda R, Lopez-Pedrosa J M. PLoS One. 2015 Feb. 6; 10(2):e0117520. doi: 10.1371/journal.pone.0117520. eCollection 2015).
Experimental design—Male Sprague-Dawley rats (8-10 weeks old) (n=42) having a body weight of 270-310 g were randomly assigned to seven experimental groups (six rats per group). Groups 1-6 were administered 0.1 mg/kg/day dexamethasone (a synthetic glucocorticoid) by intraperitoneal injection for 21 days to induce muscle loss. The dexamethasone was administered at 2 mL/kg of 1.75 mg dexamethasone in 35 mL saline. Group 7 (a sham control) was administered saline without the dexamethasone.
Group 1 (a pathological control) was administered the 0.1 mg/kg/day dexamethasone alone. […]
The body weight of each rat was measured daily. On day 21 the soleus and rectus femoris muscles from each rat were collected and weighed and the lean mass of each rat was recorded. The fore limb and hind limb grip strengths were also measured. […]

lean body mass = conditions: humans; Deutz et al., Clin Nutr. 2013; cited from earlier work

| SMILES | soleus muscle mass relative to the pathological control [1] | minimum dose of HMB at which benefits (preserving lean body mass and muscle strength) occur (lean body mass) |
| --- | --- | --- |
| COc1cc(CCC(=O)CC(=O)CCc2ccc(O)c(OC)c2)ccc1O [white curcumin, 1,7-bis(4-hydroxy-3-methoxyphenyl)heptane-3,5-dione] | did not have a significant effect |  |
| CC(C)(O)CC(=O)O [HMB, 3-hydroxy-3-methylbutanoic acid] |  | 50 mg/kg/day |
